According to US10689354B2, “Aminoazole derivative” (Teijin Pharma Limited, priority 2015, dated 2020):

Columns and labels:
human androgen receptor = target: T1, human androgen receptor (Homo sapiens, UniProt P10275); assay: Reporter assay of an androgen receptor responsive sequence (luciferase, transiently transfected HEK293 cells); format: cell-based; conditions: 24 hours incubation, relative to activity of 100 nM DHT, read-out: AR transcriptive activity (pEC50) (converted)
T1 construct: expressed in transfected cells; host or cells: HEK293
T1 sequence (P10275 1-920): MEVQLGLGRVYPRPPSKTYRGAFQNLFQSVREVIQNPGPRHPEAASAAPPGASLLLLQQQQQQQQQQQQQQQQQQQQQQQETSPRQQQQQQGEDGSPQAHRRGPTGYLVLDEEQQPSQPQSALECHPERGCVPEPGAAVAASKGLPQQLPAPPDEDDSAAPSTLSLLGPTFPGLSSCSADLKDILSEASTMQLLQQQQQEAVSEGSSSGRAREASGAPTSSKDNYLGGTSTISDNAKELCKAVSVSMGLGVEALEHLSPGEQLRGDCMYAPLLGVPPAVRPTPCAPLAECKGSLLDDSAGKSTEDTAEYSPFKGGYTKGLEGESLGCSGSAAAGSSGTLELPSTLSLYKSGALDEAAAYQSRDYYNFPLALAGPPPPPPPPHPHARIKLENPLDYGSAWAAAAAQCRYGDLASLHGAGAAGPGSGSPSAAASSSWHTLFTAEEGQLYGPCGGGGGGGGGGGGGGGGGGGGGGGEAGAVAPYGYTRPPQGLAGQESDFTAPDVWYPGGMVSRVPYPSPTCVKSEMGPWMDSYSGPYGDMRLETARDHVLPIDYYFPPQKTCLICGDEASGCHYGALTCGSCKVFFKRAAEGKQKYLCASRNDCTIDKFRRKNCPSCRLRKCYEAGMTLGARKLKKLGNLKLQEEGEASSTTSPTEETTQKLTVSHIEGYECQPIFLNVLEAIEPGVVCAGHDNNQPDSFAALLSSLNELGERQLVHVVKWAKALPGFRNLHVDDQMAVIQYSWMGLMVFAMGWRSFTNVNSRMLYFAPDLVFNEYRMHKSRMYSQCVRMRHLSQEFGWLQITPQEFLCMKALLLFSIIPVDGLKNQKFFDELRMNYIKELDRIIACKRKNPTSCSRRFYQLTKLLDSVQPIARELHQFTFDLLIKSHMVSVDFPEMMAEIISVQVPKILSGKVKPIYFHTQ
Description: Reporter Assay of an Androgen Receptor Responsive Sequence
To examine the agonist activity of compounds for androgen, a reporter assay using an androgen receptor responsive sequence was conducted.
Using Lipofectamine 2000 (Invitrogen), a plasmid mixture (pGL4-ARE (200 ng/well), pcDNA3-hAR (20 ng/well), pRL-TK (Promega) (150 ng/well)) was transiently transfected into HEK293 cells. The contents of the plasmid (mixture) are as follows:
pGL4-ARE is a reporter plasmid containing firefly luciferase sequence under the control of androgen receptor responsive sequence; pcDNA3-hAR is a plasmid containing full-length sequence of human androgen receptor under the constant control of CMV promoter; pRL-TK is a plasmid containing Renilla Luciferase sequence under the control of herpes simplex virus thymidine kinase and used as an internal standard for evaluations of transfection efficiency and compound toxicity.
After the incubation of Lipofectamine 2000 and the plasmid mixture in Opti-MEM for 20 minutes, the mixture was mixed with a cell suspension prepared with Opti-MEM in the similar way, and the cell suspension was plated to a 96-well plate at 20000 cells/well. The transfection was conducted by incubating the plates under the condition of 5% CO2 at 37° C. for 3 hours. Three hours after the transfection, the culture medium was removed and a compound solution prepared by DMEM supplemented with 5% FBS and treated with charcoal was added, and the mixture was incubated under the condition of 5% CO2 at 37° C. for 24 hours. After the incubation with the compound, luciferase activities were measured with a luminometer using Dual-Glo™ Luciferase Assay System (Promega). The measurement of the luciferase activities was performed in accordance with the protocol recommended by Promega. The activity of the compound was determined by comparing to the activity of 100 nM of DHT, and quantified the logarithm value (pEC50) of reciprocal value of the effective concentration of the compound which is equal to 50% of the activity value by applying a 4 parameter goodness-of-fit calculation.

[1] = target: T2, androgen receptor (AR-LBD) (Rattus norvegicus, UniProt P15207); assay: Evaluation of androgen receptor affinity (PolarScreen Androgen Receptor Competitor Assay Kit, Red; fluorescence polarization); conditions: 22° C. for 5 hours, relative to binding rate of 1 μM DHT, read-out: AR affinity (pEC50) (converted)
T2 construct: 5 μL of 2×AR-LBD/Fluoromone AL Red Complex contained in the kit; purchased Invitrogen
T2 sequence (P15207 651-882 limits assumed): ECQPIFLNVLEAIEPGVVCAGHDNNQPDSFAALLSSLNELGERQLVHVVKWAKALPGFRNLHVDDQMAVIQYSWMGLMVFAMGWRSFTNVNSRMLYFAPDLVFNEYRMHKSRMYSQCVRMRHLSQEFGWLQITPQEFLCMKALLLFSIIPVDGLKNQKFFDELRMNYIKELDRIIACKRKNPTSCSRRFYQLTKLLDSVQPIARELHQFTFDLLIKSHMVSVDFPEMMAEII
Method in brief: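 Compounds were mixed with AR-LBD/Fluoromone AL Red complex and incubated 5 h at 22° C before fluorescence polarization was read. Binding was expressed relative to 1 μM dihydrotestosterone, and pEC50 (concentration giving 50% of that binding) came from a 4-parameter fit.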

| Structure (SMILES) | EC50 (human androgen receptor) | EC50 [1] |
| --- | --- | --- |
| Cc1sc(N(Cc2ccc(C(F)(F)F)cc2)c2ccc(C#N)cc2)nc1C(=O)NS(C)(=O)=O [Compound 46, 2-[4-cyano-N-[[4-(trifluoromethyl)phenyl]methyl]anilino]-5-methyl-N-methylsulfonyl-thiazole-4-carboxamide] | 31.6 nM | 31.6 nM |
| Cc1sc(N(Cc2ccc3ncsc3c2)c2ccc(C#N)cc2)nc1C(=O)NS(C)(=O)=O [Compound 50, 2-[N-(1,3-benzothiazol-6-ylmethyl)-4-cyano-anilino]-5-methyl-N-methylsulfonyl-thiazole-4-carboxamide] | 50.1 nM | 79.4 nM |
| Cc1sc(N(Cc2cc3ccccc3s2)c2ccc(C#N)cc2)nc1C(=O)NS(C)(=O)=O [Compound 51, 2-[N-(benzothiophen-2-ylmethyl)-4-cyano-anilino]-5-methyl-N-methylsulfonyl-thiazole-4-carboxamide] | 31.6 nM | 50.1 nM |
| Cc1sc(N(CCc2ccccc2)c2ccc(C#N)cc2)nc1C(=O)NS(C)(=O)=O [Compound 52, 2-[4-cyano-N-(2-phenylethyl)anilino]-5-methyl-N-methylsulfonyl-thiazole-4-carboxamide] | 2510 nM | 398 nM |
| Cc1sc(N(Cc2ccccc2)c2ccc3ncccc3c2)nc1C(=O)NS(C)(=O)=O [Compound 54, 2-[benzyl(6-quinolyl)amino]-5-methyl-N-methylsulfonyl-thiazole-4-carboxamide] | 1580 nM | 398 nM |
| Cc1sc(N(Cc2ccccc2SC(F)(F)F)c2ccc(C#N)cc2)nc1C(=O)NS(C)(=O)=O [Compound 56, 2-[4-cyano-N-[[2-(trifluoromethylsulfanyl)phenyl]methyl]anilino]-5-methyl-N-methylsulfonyl-thiazole-4-carboxamide] | 6310 nM | 63.1 nM |
| Cc1sc(N(Cc2cccc(SC(F)(F)F)c2)c2ccc(C#N)cc2)nc1C(=O)NS(C)(=O)=O [Compound 57, 2-[4-cyano-N-[[3-(trifluoromethylsulfanyl)phenyl]methyl]anilino]-5-methyl-N-methylsulfonyl-thiazole-4-carboxamide] | 316 nM | 31.6 nM |
| Cc1sc(N(Cc2cccc(OCc3ccccc3)c2)c2ccc(C#N)cc2)nc1C(=O)NS(C)(=O)=O [Compound 59, 2-[N-[(3-benzyloxyphenyl)methyl]-4-cyano-anilino]-5-methyl-N-methylsulfonyl-thiazole-4-carboxamide] | > 10000 nM | 31.6 nM |
| Cc1sc(N(Cc2ccccc2)c2ccc(-n3cncn3)cc2)nc1C(=O)NS(C)(=O)=O [Compound 61, 2-[N-benzyl-4-(1,2,4-triazol-1-yl)anilino]-5-methyl-N-methylsulfonyl-thiazole-4-carboxamide] | 3160 nM | 501 nM |
| CCCCN(c1ccc(C#N)cc1)c1nc(C(=O)NS(C)(=O)=O)c(C)s1 [Compound 64, 2-(N-butyl-4-cyano-anilino)-5-methyl-N-methylsulfonyl-thiazole-4-carboxamide] | 2510 nM | 251 nM |
| CCC(CC)CN(c1ccc(C#N)cc1)c1nc(C(=O)NS(C)(=O)=O)c(C)s1 [Compound 65, 2-[4-cyano-N-(2-ethylbutyl)anilino]-5-methyl-N-methylsulfonyl-thiazole-4-carboxamide] | > 10000 nM | 126 nM |
| Cc1sc(N(CCC(C)C)c2ccc(C#N)cc2)nc1C(=O)NS(C)(=O)=O [Compound 66, 2-(4-cyano-N-isopentyl-anilino)-5-methyl-N-methylsulfonyl-thiazole-4-carboxamide] | 794 nM | 79.4 nM |
| Cc1sc(N(Cc2cccc3ccccc23)c2ccc(C#N)cc2)nc1C(=O)NS(C)(=O)=O [Compound 68, 2-[4-cyano-N-(1-naphthylmethyl)anilino]-5-methyl-N-methylsulfonyl-thiazole-4-carboxamide] | 794 nM | 50.1 nM |
